Data from PMC6514705, “QuinoxalineTacrine QT78, a Cholinesterase Inhibitor as a Potential Ligand for Alzheimer’s Disease Therapy” (Molecules, 2019).

Columns and labels:
SH-SY5Y cells [1] = experiment: Neuroprotection in SH-SY5Y cells against rotenone/oligomycin A (R/O) toxicity (MTT); type: cell-based, human; conditions: 1 μM compound, compared with lower concentrations
Procedure: (§1) Finally, following the protocols described in the Supporting Information, we evaluated the neuroprotective profile of QT78 against two toxic insults related to neurodegeneration, using melatonin (10 nM) as a reference compound: (a) a model of reactive oxygen species (ROS) generation, based on the cocktail of the mitochondrial respiratory chain blockers rotenone and oligomycin A (R/O), and (b) hyperphosphorylation of tau protein using okadaic acid (OA), a well-known protein phosphatase inhibitor.
(§2) Human SH-SY5Y cells were maintained in a 1:1 mixture of Nutrient Mixture F-12 and Eagle´s minimum essential medium (EMEM) supplemented with 15 nonessential amino acids, 1 mM sodium pyruvate, 10% heat-inactivated FBS, 100 units/mL penicillin, and 100 μg/mL streptomycin. Cultures were seeded into flasks containing supplemented medium and maintained at 37 °C in a humidified atmosphere of 5% CO2 and 95% air. For assays, SH-SY5Y cells were sub-cultured in 96-well plates at a seeding density of 5 × 10^4 cells per well for 2 days. […]
(§3) MTT reduction was performed as described for both HepG2 and SH-SY5Y human cell lines. […] Colorimetric determination of MTT reduction was measured in an ELISA microplate reader at 540 nm. […]

in vitro = type: cell-based; conditions: human
Procedure: The human hepatoma HepG2 cell line was kindly provided by the IdiPAZ Institute for Health Research (Madrid, Spain). They were cultured in Eagle´s minimum essential medium (EMEM) supplemented with 15 nonessential amino acids, 1 mM sodium pyruvate, 10 % heat-inactivated FBS, 100 units/mL penicillin, and 100 µg/mL streptomycin (reagents from Invitrogen, Madrid, Spain). […] Culture media were changed every 2 days. […] For assays, cells were subcultured in 96-well plates at a seeding density of 1 × 10^5 cells per well.
MTT reduction was performed as described for both HepG2 and SH-SY5Y human cell lines. Briefly, 50 µL of the MTT labeling reagent, at a final concentration of 0.5 mg/mL, was added. […] Colorimetric determination of MTT reduction was measured in an ELISA microplate reader at 540 nm. Non-treated cells were considered controls and were taken as 100% viability.

human recombinant AChE = target: T1, human recombinant AChE (Homo sapiens, UniProt P22303); experiment: Inhibition of human AChE (Ellman's assay); type: biochemical; conditions: 20 min preincubation at 37 °C, pH 8.0, read-out: IC50 (hAChE)
T1 construct: purchased Sigma-Aldrich, Milan, Italy
T1 sequence (P22303 32-614): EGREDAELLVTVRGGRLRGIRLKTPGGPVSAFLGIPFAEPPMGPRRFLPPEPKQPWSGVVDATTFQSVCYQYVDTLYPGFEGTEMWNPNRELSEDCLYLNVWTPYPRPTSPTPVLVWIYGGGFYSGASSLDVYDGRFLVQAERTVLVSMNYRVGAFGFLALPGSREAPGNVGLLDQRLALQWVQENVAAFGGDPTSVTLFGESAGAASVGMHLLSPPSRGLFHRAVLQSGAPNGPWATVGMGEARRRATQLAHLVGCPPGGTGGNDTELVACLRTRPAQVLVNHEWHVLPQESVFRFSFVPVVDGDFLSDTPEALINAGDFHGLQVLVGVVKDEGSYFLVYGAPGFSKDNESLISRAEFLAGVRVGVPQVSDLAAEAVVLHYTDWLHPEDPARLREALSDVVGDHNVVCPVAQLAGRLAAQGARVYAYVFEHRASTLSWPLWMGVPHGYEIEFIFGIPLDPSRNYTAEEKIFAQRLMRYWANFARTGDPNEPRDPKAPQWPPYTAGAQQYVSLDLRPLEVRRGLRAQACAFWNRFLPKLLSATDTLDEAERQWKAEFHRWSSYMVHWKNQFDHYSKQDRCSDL
Procedure: (§4) Next, the in vitro inhibition of human acetylcholinesterase (hAChE) and human butyrylcholinesterase (hBuChE) was assessed according to the method of Ellman
(§5) The ability of QT78 to inhibit human ChE activity was assessed using Ellman’s assay. A Jasco V-530 double beam spectrophotometer connected to a HAAKE DC30 thermostating system (Thermo Haake, Vreden, Germany) was used. […] Either 50 µL of a solution of the tested compound at increasing concentrations or 50 µL of solvent (methanol or water) were added to the assay solution and preincubated at 37 °C with the enzyme for 20 min before the addition of substrate. […] In parallel, blanks containing all components except the enzyme were prepared to account for the non-enzymatic hydrolysis of the substrate. The reaction rates were compared and the percentage of inhibition due to the presence of test compound was calculated. Each concentration was analyzed in duplicate/triplicate. The percentage of inhibition of the enzyme activity due to the presence of inhibitor was calculated. Inhibition plots were obtained for each compound by plotting the percentage of inhibition versus the logarithm of inhibitor concentration in the assay solution. The linear regression parameters were determined for each curve and the IC50 extrapolated.

SH-SY5Y cells [2] = experiment: Neuroprotection in SH-SY5Y cells against okadaic acid (OA) toxicity (MTT); type: cell-based, human; conditions: 1 μM compound, compared with lower concentrations
Procedure: as §1, §2, §3

BuChE from human serum = target: T2, BuChE from human serum (Homo sapiens, UniProt P06276); experiment: Inhibition of human BuChE (Ellman's assay); type: biochemical; conditions: 20 min preincubation at 37 °C, pH 8.0, read-out: IC50 (hBuChE)
T2 construct: BuChE from human serum (Sigma-Aldrich, Milan, Italy); purchased Sigma-Aldrich, Milan, Italy; host or cells: human serum
T2 sequence (P06276 29-602): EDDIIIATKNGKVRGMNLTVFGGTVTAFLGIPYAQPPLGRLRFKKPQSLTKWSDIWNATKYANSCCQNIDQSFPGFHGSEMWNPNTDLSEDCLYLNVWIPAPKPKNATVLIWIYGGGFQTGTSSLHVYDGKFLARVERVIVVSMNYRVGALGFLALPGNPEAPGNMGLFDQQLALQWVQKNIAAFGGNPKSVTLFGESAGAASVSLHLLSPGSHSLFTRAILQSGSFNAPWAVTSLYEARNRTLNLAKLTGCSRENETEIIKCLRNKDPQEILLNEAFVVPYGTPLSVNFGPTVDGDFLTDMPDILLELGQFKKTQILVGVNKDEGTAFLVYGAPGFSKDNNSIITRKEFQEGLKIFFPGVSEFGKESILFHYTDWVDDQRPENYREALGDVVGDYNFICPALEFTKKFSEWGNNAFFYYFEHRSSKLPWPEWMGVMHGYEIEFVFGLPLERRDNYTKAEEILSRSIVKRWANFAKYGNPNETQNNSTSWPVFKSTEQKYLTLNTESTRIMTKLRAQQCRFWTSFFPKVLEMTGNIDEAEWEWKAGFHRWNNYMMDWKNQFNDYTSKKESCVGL
Procedure: as §4, §5

## Nc1c2c(nc3nc4ccccc4nc13)CCCC2 [QT78, 1,2,3,4-tetrahydroquinolino[2,3-b]quinoxalin-12-amine]
SH-SY5Y cells [1]
  protective capacity against R/O: the protective capacity decreased
In vitro
  viability at 24 h, 1 µM: 96.7 ± 2.14%
  viability at 24 h, 3 µM: 97.6 ± 2.2%
  viability at 24 h, 10 µM: 97.1 ± 1.64%
  viability at 24 h, 30 µM: 95.1 ± 1.5%
  viability at 24 h, 100 µM: 90.5 ± 1.86%
  viability at 24 h, 300 µM: 78.1 ± 0.94%
  viability at 24 h, 1000 µM: 68.3 ± 2.92%
Human recombinant AChE
  IC50: 22 ± 1.3 µM
SH-SY5Y cells [2]
  protective capacity against OA: the protective capacity decreased
BuChE from human serum
  IC50: 6.79 ± 0.33 µM
